20 molecules from patent US20260356841A1, “HETEROCYCLIC PYRIDINONE COMPOUNDS AS TRIGGERING RECEPTOR EXPRESSED ON MYELOID CELLS 2 AGONISTS AND METHODS OF USE” (Vigil Neuroscience, Inc., priority 2023, published 2026) can be followed below.

For the assay, the target named is T1, human TREM2 (Homo sapiens, UniProt Q9NZC2).
T1 construct: expressed in transfected cells; host or cells: HEK293T (HEK293T-hTREM2 cells)
Kind of assay: TREM2 agonist potency by cellular phosphorylation of Spleen Tyrosine Kinase (Syk), AlphaLisa, HEK293T-hTREM2 cells. Format: cell-based. The procedure, abridged: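 HEK293T cells co-expressing human TREM2 and DAP12, plated 20–24 h before use. Compounds applied 45 min at room temperature in assay buffer, then cells lysed and phospho-Syk quantified by AlphaLisa. Percent activation from a standard curve; EC50 from a four-parameter variable-slope fit.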

Where [1] appears, read: hTREM2 EC50 Data (HEK293 Cells), Syk phosphorylation, AlphaLisa, read-out: hTREM2 EC50.

Molecules are shown by their SMILES. Where two headings read alike, the source gives them in different places.

T1 sequence (Q9NZC2 19-230): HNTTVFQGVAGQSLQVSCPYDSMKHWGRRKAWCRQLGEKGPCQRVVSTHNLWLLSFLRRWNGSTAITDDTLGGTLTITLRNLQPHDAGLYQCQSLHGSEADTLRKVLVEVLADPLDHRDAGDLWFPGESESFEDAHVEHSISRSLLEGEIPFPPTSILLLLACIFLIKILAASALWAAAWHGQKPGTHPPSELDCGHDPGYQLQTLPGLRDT
T1 sequence (O43914 22-113 partner): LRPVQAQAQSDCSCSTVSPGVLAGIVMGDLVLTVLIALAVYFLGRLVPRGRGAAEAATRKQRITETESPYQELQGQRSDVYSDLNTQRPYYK

Regarding `Cc1nc2nc([C@H]3CCO[C@@H](c4ccc(=O)n(CC5(C#N)CC5)c4)C3)nc(C34CC(C(F)(F)F)(C3)C4)c2nc1C` [Example 98, 1-[[5-[(2R,4S)-4-[6,7-dimethyl-4-[3-(trifluoromethyl)-1-bicyclo[1.1.1]pentanyl]pteridin-2-yl]tetrahydropyran-2-yl]-2-oxo-1-pyridyl]methyl]cyclopropanecarbonitrile], the 50% effective concentration (EC50) under setting [1] is less than 100 nM.
In turn, `Cc1cc2c(-c3ccc(F)cc3F)nc(N3C[C@@H](C)O[C@@H](c4ccc(=O)n(C)c4)C3)cc2nc1C` [Example 196, 5-((2S,6R)-4-(5-(2,4-difluorophenyl)-2,3-dimethyl-1,6-naphthyridin-7-yl)-6-methylmorpholin-2-yl)-1-methylpyridin-2 (1H)-one] showed an EC50 of less than 100 nM.
`Cc1nc2nc([C@@H]3CCO[C@H](c4ccc(=O)n(C)c4)C3)nc(-c3ccc(F)cc3F)c2nc1C` [Example 2, 5-[(2S,4R)-4-[4-(2,4-difluorophenyl)-6,7-dimethyl-pteridin-2-yl]tetrahydropyran-2-yl]-1-methyl-pyridin-2-one]: under setting [1], the concentration for a half-maximal effect (EC50) was more than 500 nM.
For the molecule `Cc1nc2nc([C@H]3CCO[C@@H](c4ccc(=O)n(-c5csc(C6CC6)c5)c4)C3)nc(C34CC(C(F)(F)F)(C3)C4)c2nc1C` [Example 112], the EC50 under setting [1] is less than 100 nM.
`Cc1nc2nc([C@H]3CCO[C@@H](c4ccc(=O)n(C)c4)C3)nc([C@H]3CC[C@@H](F)CC3)c2nc1C` [Example 43, 5-((2R,4S)-4-(4-((1s,4R)-4-fluorocyclohexyl)-6,7-dimethylpteridin-2-yl)tetrahydro-2H-pyran-2-yl)-1-methylpyridin-2(1H)-one]: under setting [1], the EC50 is less than 100 nM.
On to `Cc1nc2nc([C@@H]3CCO[C@H](c4ccc(=O)n(C)c4)C3)nc(C34CC(C(F)(F)F)(C3)C4)c2nc1C1CC1` [Example 159, 1-methyl-5-[(2S,4R)-4-[6-cyclopropyl-7-methyl-4-[3-(trifluoro-methyl)-1-bicyclo[1.1.1]pentanyl]pteridin-2-yl]tetrahydropyran-2-yl]pyridin-2-one], for which the concentration for a half-maximal effect (EC50) under setting [1] is less than 100 nM.
As to `Cc1nc(-n2cc([C@H]3C[C@@H](c4nc(C56CC(C(F)(F)F)(C5)C6)c5nc(C)c(C)nc5n4)CCO3)ccc2=O)cs1` [Example 114, 5-((2R,4S)-4-(6,7-dimethyl-4-(3-(trifluoro-methyl)bicyclo[1.1.1]pentan-1-yl)pteridin-2-yl)tetrahydro-2H-pyran-2-yl)-1-(2-methyl-thiazol-4-yl)pyridin-2(1H)-one], the EC50 under setting [1] was less than 100 nM.
For `Cc1nc2nc([C@H]3CCO[C@@H](c4ccc(=O)n(C)c4)C3)cc(C34CC(C(F)(F)F)(C3)C4)c2nc1C` [Example 167, 1-methyl-5-[(2R,4S)-4-[2,3-dimethyl-8-[3-(trifluoromethyl)-1-bicyclo[1.1.1]pentanyl]pyrido[2,3-b]pyrazin-6-yl]tetrahydropyran-2-yl]pyridin-2-one], the EC50 under setting [1] was less than 100 nM.
For `Cc1nc2nc([C@H]3CCO[C@@H](c4ccc(=O)n(N5CC=CC5)c4)C3)nc(C34CC(C(F)(F)F)(C3)C4)c2nc1C` [Example 210, 1-(2,5-dihydropyrrol-1-yl)-5-[(2R,4S)-4-[6,7-dimethyl-4-[3-(trifluoromethyl)-1-bicyclo[1.1.1]pentanyl]pteridin-2-yl]tetrahydropyran-2-yl]pyridin-2-one], the EC50 under setting [1] was less than 100 nM.
In the case of `Cc1nc2nc(N3CCC(F)(F)C(c4ccc(=O)n(C)c4)C3)nc(-c3ccc(F)cc3F)c2nc1C` (centres unmarked) [Example 190, 5-[1-[4-(2,4-difluorophenyl)-6,7-dimethyl-pteridin-2-yl]-4,4-difluoro-3-piperidyl]-1-methyl-pyridin-2-one], the EC50 under setting [1] was less than 100 nM.
Consider `Cc1noc(-c2cc3c(C45CC(C(F)(F)F)(C4)C5)nc([C@H]4CCO[C@@H](c5ccc(=O)n(C(F)F)c5)C4)nc3nc2C)n1` [Example 352], for which the EC50 under setting [1] is more than 500 nM.
The same measure, in the same setting: then `Cc1nc2nc([C@@H]3CCO[C@H](c4cnc(=O)n(C)c4)C3)nc(C34CC(C(F)(F)F)(C3)C4)c2nc1C` [Example 162, 1-methyl-5-[(2S,4R)-4-[6,7-dimethyl-4-[3-(trifluoromethyl)-1-bicyclo[1.1.1]-pentanyl]pteridin-2-yl]tetrahydropyran-2-yl]pyrimidin-2-one], with less than 100 nM; and `Cc1cc(-n2cc([C@H]3C[C@@H](c4nc(C56CC(C(F)(F)F)(C5)C6)c5nc(C)c(C)nc5n4)CCO3)ccc2=O)cs1` [Example 105, 5-((2R,4S)-4-(6,7-dimethyl-4-(3-(trifluoromethyl)bicyclo[1.1.1]pentan-1-yl)pteridin-2-yl)tetrahydro-2H-pyran-2-yl)-1-(5-methylthiophen-3-yl)pyridin-2 (1H)-one], with less than 100 nM.
The same measure, in the same setting: the result for `Cc1nc2nc([C@H]3CCO[C@@H](c4ccc(=O)n(C(C)C)c4)C3)nc(-c3ccc(C(F)(F)F)cc3F)c2nc1C` [Example 68, 1-isopropyl-5-[(2R,4S)-4-[4-[2-fluoro-4-(trifluoromethyl)-phenyl]-6,7-dimethyl-pteridin-2-yl]tetrahydropyran-2-yl]pyridin-2-one] reads less than 100 nM; that for `Cc1nc2nc([C@H]3CCO[C@@H](c4ccc(=O)n(CCO)c4)C3)nc(C34CC(C(F)(F)F)(C3)C4)c2nc1C` [Example 84, 5-[(2R,4S)-4-[6,7-dimethyl-4-[3-(trifluoromethyl)-1-bicyclo[1.1.1]pentanyl]pteridin-2-yl]tetrahydropyran-2-yl]-1-(2-hydroxyethyl)pyridin-2-one], less than 100 nM.
As for `Cc1nc2nc([C@H]3CCO[C@@H](c4ccc(=O)n(C)c4)C3)nc(-c3ccc(F)cc3F)c2nc1C` [Example 1, 1-methyl-5-[(2R,4S)-4-[4-(2,4-difluorophenyl)-6,7-dimethyl-pteridin-2-yl]tetrahydropyran-2-yl]pyridin-2-one], under setting [1], the EC50 is less than 100 nM.
As for `Cc1nc2nc([C@H]3CCO[C@@H](c4ccc(=O)n(C)c4)C3)nc(C34CC(C(F)(F)F)(C3)C4)c2nc1C1CC1` [Example 158, 1-methyl-5-[(2R,4S)-4-[6-cyclopropyl-7-methyl-4-[3-(trifluoro-methyl)-1-bicyclo[1.1.1]pentanyl]pteridin-2-yl]tetrahydropyran-2-yl]pyridin-2-one], under setting [1], the EC50 is less than 100 nM.
In the case of `COc1nc2c(-c3ccc(C(F)(F)F)cc3F)nc([C@H]3CCO[C@@H](c4ccc(=O)n(C)c4)C3)nc2nc1C` [Example 129, 1-methyl-5-[(2R,4S)-4-[4-[2-fluoro-4-(trifluoromethyl)phenyl]-6-methoxy-7-methyl-pteridin-2-yl]tetrahydropyran-2-yl]pyridin-2-one], under setting [1], the concentration giving a half-maximal response (EC50) was less than 100 nM.
`[2H]C([2H])([2H])n1cc([C@H]2C[C@@H](c3nc(-c4ccc(C(F)(F)F)cc4F)c4nc(OC)c(C)nc4n3)CCO2)ccc1=O` [Example 132, 5-[(2R,4S)-4-[4-[2-fluoro-4-(trifluoromethyl)phenyl]-6-methoxy-7-methyl-pteridin-2-yl]tetrahydropyran-2-yl]-1-(trideuteriomethyl)pyridin-2-one] returned an EC50 of less than 100 nM.
As for `[2H]C([2H])([2H])n1cc([C@H]2C[C@@H](c3nc(C45CC(C(F)(F)F)(C4)C5)c4nc(OC)c(C)nc4n3)CCO2)cc(C)c1=O` [Example 149, 5-[(2R,4S)-4-[6-methoxy-7-methyl-4-[3-(trifluoromethyl)-1-bicyclo-[1.1.1]pentanyl]pteridin-2-yl]tetrahydropyran-2-yl]-3-methyl-1-(trideuteriomethyl)-pyridin-2-one], under setting [1], the EC50 was less than 100 nM.

As usually defined, the EC50 is the concentration that produces a half-maximal response.
